Assay results published in ChEMBL document CHEMBL3046685, “Otebo bean (Phaseolus vulgaris) sensitivity to pre-emergence herbicides” (Crop Prot, 2006).

Assays:
Phaseolus vulgaris [1] = assay: Phytotoxicity in Phaseolus vulgaris (otebo bean) assessed as plant height at 1000 g ai/ha applied as spray during pre-emergence treatment for 1 to 2 days measured 28 days post emergence (reference value: 29 cm); format: organism-based; conditions: in vivo, other
Phaseolus vulgaris [2] = assay: Phytotoxicity in Phaseolus vulgaris (otebo bean) assessed as visual injury at 1000 g ai/ha applied as spray during pre-emergence treatment for 1 to 2 days measured 14 days post emergence relative to untreated control; format: organism-based; conditions: in vivo, other
Phaseolus vulgaris [3] = assay: Phytotoxicity in Phaseolus vulgaris (otebo bean) assessed as plant height at 2000 g ai/ha applied as spray during pre-emergence treatment for 1 to 2 days measured 28 days post emergence (reference value: 29 cm); format: organism-based; conditions: in vivo, other
Phaseolus vulgaris [4] = assay: Phytotoxicity in Phaseolus vulgaris (otebo bean) assessed as visual injury at 2000 g ai/ha applied as spray during pre-emergence treatment for 1 to 2 days measured 7 days post emergence relative to untreated control; format: organism-based; conditions: in vivo, other
Phaseolus vulgaris [5] = assay: Phytotoxicity in Phaseolus vulgaris (otebo bean) assessed as visual injury at 1000 g ai/ha applied as spray during pre-emergence treatment for 1 to 2 days measured 7 days post emergence relative to untreated control; format: organism-based; conditions: in vivo, other
Phaseolus vulgaris [6] = assay: Phytotoxicity in Phaseolus vulgaris (otebo bean) assessed as visual injury at 2000 g ai/ha applied as spray during pre-emergence treatment for 1 to 2 days measured 14 days post emergence relative to untreated control; format: organism-based; conditions: in vivo, other
Phaseolus vulgaris [7] = assay: Phytotoxicity in Phaseolus vulgaris (otebo bean) assessed as change in moisture content at 1000 to 2000 g ai/ha applied as spray during preemergence treatment for 1 to 2 days; format: organism-based; conditions: in vivo, other
Phaseolus vulgaris [8] = assay: Increase in Phaseolus vulgaris (otebo bean) yield at 2000 g ai/ha applied as spray during pre-emergence treatment for 1 to 2 days (reference value: 3.8 t/ha); format: functional
Phaseolus vulgaris [9] = assay: Phytotoxicity in Phaseolus vulgaris (otebo bean) assessed as shoot dry weight at 2000 g ai/ha applied as spray during pre-emergence treatment for 1 to 2 days measured 42 days post emergence (reference value: 164 g); format: organism-based; conditions: in vivo, other
Phaseolus vulgaris [10] = assay: Phytotoxicity in Phaseolus vulgaris (otebo bean) assessed as shoot dry weight at 1000 g ai/ha applied as spray during pre-emergence treatment for 1 to 2 days measured 42 days post emergence (reference value: 164 g); format: organism-based; conditions: in vivo, other
Phaseolus vulgaris [11] = assay: Increase in Phaseolus vulgaris (otebo bean) yield at 1000 g ai/ha applied as spray during pre-emergence treatment for 1 to 2 days (reference value: 3.8 t/ha); format: functional
Phaseolus vulgaris [12] = assay: Phytotoxicity in Phaseolus vulgaris (otebo bean) assessed as visual injury at 2000 g ai/ha applied as spray during pre-emergence treatment for 1 to 2 days measured 28 days post emergence relative to untreated control; format: organism-based; conditions: in vivo, other
Phaseolus vulgaris [13] = assay: Phytotoxicity in Phaseolus vulgaris (otebo bean) assessed as visual injury at 1000 g ai/ha applied as spray during pre-emergence treatment for 1 to 2 days measured 28 days post emergence relative to untreated control; format: organism-based; conditions: in vivo, other
Phaseolus vulgaris [14] = assay: Phytotoxicity in Phaseolus vulgaris (otebo bean) assessed as shoot dry weight at 150 g ai/ha applied as spray during pre-emergence treatment for 1 to 2 days measured 42 days post emergence (reference value: 164 g); format: organism-based; conditions: in vivo, other
Phaseolus vulgaris [15] = assay: Phytotoxicity in Phaseolus vulgaris (otebo bean) assessed as visual injury at 75 g ai/ha applied as spray during pre-emergence treatment for 1 to 2 days measured 14 days post emergence relative to untreated control; format: organism-based; conditions: in vivo, other
Phaseolus vulgaris [16] = assay: Increase in Phaseolus vulgaris (otebo bean) yield at 150 g ai/ha applied as spray during pre-emergence treatment for 1 to 2 days (reference value: 3.8 t/ha); format: functional
Phaseolus vulgaris [17] = assay: Phytotoxicity in Phaseolus vulgaris (pinto bean) assessed as visual injury at 75 g ai/ha applied prior to planting relative to control; format: organism-based; conditions: in vivo, other
Phaseolus vulgaris [18] = assay: Phytotoxicity in Phaseolus vulgaris (otebo bean) assessed as shoot dry weight at 75 g ai/ha applied as spray during pre-emergence treatment for 1 to 2 days measured 42 days post emergence (reference value: 164 g); format: organism-based; conditions: in vivo, other
Phaseolus vulgaris [19] = assay: Phytotoxicity in Phaseolus vulgaris (otebo bean) assessed as visual injury at 150 g ai/ha applied as spray during pre-emergence treatment for 1 to 2 days measured 28 days post emergence relative to untreated control; format: organism-based; conditions: in vivo, other
Phaseolus vulgaris [20] = assay: Phytotoxicity in Phaseolus vulgaris (otebo bean) assessed as visual injury at 150 g ai/ha applied as spray during pre-emergence treatment for 1 to 2 days measured 14 days post emergence relative to untreated control; format: organism-based; conditions: in vivo, other
Phaseolus vulgaris [21] = assay: Phytotoxicity in Phaseolus vulgaris (dry bean) assessed as visual injury relative to control; format: organism-based; conditions: in vivo
Phaseolus vulgaris [22] = assay: Phytotoxicity in Phaseolus vulgaris (otebo bean) assessed as plant height at 75 g ai/ha applied as spray during pre-emergence treatment for 1 to 2 days measured 28 days post emergence (reference value: 29 cm); format: organism-based; conditions: in vivo, other
Phaseolus vulgaris [23] = assay: Phytotoxicity in Phaseolus vulgaris (otebo bean) assessed as visual injury at 150 g ai/ha applied as spray during pre-emergence treatment for 1 to 2 days measured 7 days post emergence relative to untreated control; format: organism-based; conditions: in vivo, other
Phaseolus vulgaris [24] = assay: Increase in Phaseolus vulgaris (otebo bean) yield at 75 g ai/ha applied as spray during pre-emergence treatment for 1 to 2 days (reference value: 3.8 t/ha); format: functional
Phaseolus vulgaris [25] = assay: Phytotoxicity in Phaseolus vulgaris (otebo bean) assessed as plant height at 150 g ai/ha applied as spray during pre-emergence treatment for 1 to 2 days measured 28 days post emergence (reference value: 29 cm); format: organism-based; conditions: in vivo, other
Phaseolus vulgaris [26] = assay: Phytotoxicity in Phaseolus vulgaris (cranberry bean) assessed as visual injury at 0.075 to 0.15 kg/ha applied during pre-emergence relative to control; format: organism-based; conditions: in vivo, other
Phaseolus vulgaris [27] = assay: Phytotoxicity in Phaseolus vulgaris (otebo bean) assessed as change in moisture content at 75 to 150 g ai/ha applied as spray during preemergence treatment for 1 to 2 days; format: organism-based; conditions: in vivo, other
Phaseolus vulgaris [28] = assay: Phytotoxicity in Phaseolus vulgaris (black bean) assessed as visual injury treated through soil application relative to control; format: organism-based; conditions: in vivo, other
Phaseolus vulgaris [29] = assay: Phytotoxicity in Phaseolus vulgaris (cranberry bean) assessed as visual injury at 0.075 to 0.15 kg/ha applied prior to planting relative to control; format: organism-based; conditions: in vivo, other
Phaseolus vulgaris [30] = assay: Phytotoxicity in Phaseolus vulgaris (otebo bean) assessed as visual injury at 75 g ai/ha applied as spray during pre-emergence treatment for 1 to 2 days measured 28 days post emergence relative to untreated control; format: organism-based; conditions: in vivo, other
Phaseolus vulgaris [31] = assay: Phytotoxicity in Phaseolus vulgaris (black bean) assessed as reduction in crop yield treated through soil application relative to control; format: organism-based; conditions: in vivo, other
Phaseolus vulgaris [32] = assay: Phytotoxicity in Phaseolus vulgaris (otebo bean) assessed as visual injury at 75 g ai/ha applied as spray during pre-emergence treatment for 1 to 2 days measured 7 days post emergence relative to untreated control; format: organism-based; conditions: in vivo, other

**Q.** Which results are given for `CC1(C)CON(Cc2ccccc2Cl)C1=O` [CLOMAZONE]?
**A.** Activity (Phaseolus vulgaris [1]): 28 cm; Activity (Phaseolus vulgaris [2]): 5%; Activity (Phaseolus vulgaris [3]): 26 cm; Activity (Phaseolus vulgaris [4]): 13%; Activity (Phaseolus vulgaris [5]): 5%; Activity (Phaseolus vulgaris [6]): 12%; Activity (Phaseolus vulgaris [7]): Non-toxic; Crop_yield (Phaseolus vulgaris [8]): 4.1 tons/ha; Activity (Phaseolus vulgaris [9]): 123 g; Activity (Phaseolus vulgaris [10]): 143 g; Crop_yield (Phaseolus vulgaris [11]): 4.5 tons/ha; Activity (Phaseolus vulgaris [12]): 9%; Activity (Phaseolus vulgaris [13]): 2%

**Q.** `CCc1cnc(C2=NC(C)(C(C)C)C(=O)N2)c(C(=O)O)c1` (configuration not stated) [IMAZETHAPYR] was tested. Which Activity (Phaseolus vulgaris [14]) did it give?
**A.** 95 g

**Q.** What about the Activity (Phaseolus vulgaris [15]) of the same molecule?
**A.** 0%

**Q.** And the Crop_yield (Phaseolus vulgaris [16])?
**A.** 2.9 tons/ha

**Q.** What about the Activity (Phaseolus vulgaris [17]) of the same molecule?
**A.** < 6%

**Q.** What about the Activity (Phaseolus vulgaris [18]) of the same molecule?
**A.** 118 g

**Q.** And the Activity (Phaseolus vulgaris [19])?
**A.** 16%

**Q.** And the Activity (Phaseolus vulgaris [20])?
**A.** 1%

**Q.** And the Activity (Phaseolus vulgaris [21])?
**A.** <= 20%

**Q.** What about the Activity (Phaseolus vulgaris [22]) of the same molecule?
**A.** 26 cm

**Q.** What about the Activity (Phaseolus vulgaris [23]) of the same molecule?
**A.** 0%

**Q.** What about the Crop_yield (Phaseolus vulgaris [24]) of the same molecule?
**A.** 3.2 tons/ha

**Q.** And the Activity (Phaseolus vulgaris [25])?
**A.** 22 cm

**Q.** And the Activity (Phaseolus vulgaris [26])?
**A.** < 5%

**Q.** And the Activity (Phaseolus vulgaris [27])?
**A.** Non-toxic

**Q.** What about the Activity (Phaseolus vulgaris [28]) of the same molecule?
**A.** <= 6%

**Q.** What about the Activity (Phaseolus vulgaris [29]) of the same molecule?
**A.** < 5%

**Q.** And the Activity (Phaseolus vulgaris [30])?
**A.** 6%

**Q.** And the Crop_yield (Phaseolus vulgaris [31])?
**A.** 49%

**Q.** What about the Activity (Phaseolus vulgaris [32]) of the same molecule?
**A.** 0%
